One assay deals with T1, LntPae (Pseudomonas aeruginosa, UniProt Q9ZI86).
T1 construct: gene lnt; full-length membrane enzyme, N-terminal thrombin-cleavable His6-tag (pET28a, synthetic gene), expressed in E. coli C41(DE3), purified in LMNG; tag cleavage not described
T1 sequence (Q9ZI86 1-511): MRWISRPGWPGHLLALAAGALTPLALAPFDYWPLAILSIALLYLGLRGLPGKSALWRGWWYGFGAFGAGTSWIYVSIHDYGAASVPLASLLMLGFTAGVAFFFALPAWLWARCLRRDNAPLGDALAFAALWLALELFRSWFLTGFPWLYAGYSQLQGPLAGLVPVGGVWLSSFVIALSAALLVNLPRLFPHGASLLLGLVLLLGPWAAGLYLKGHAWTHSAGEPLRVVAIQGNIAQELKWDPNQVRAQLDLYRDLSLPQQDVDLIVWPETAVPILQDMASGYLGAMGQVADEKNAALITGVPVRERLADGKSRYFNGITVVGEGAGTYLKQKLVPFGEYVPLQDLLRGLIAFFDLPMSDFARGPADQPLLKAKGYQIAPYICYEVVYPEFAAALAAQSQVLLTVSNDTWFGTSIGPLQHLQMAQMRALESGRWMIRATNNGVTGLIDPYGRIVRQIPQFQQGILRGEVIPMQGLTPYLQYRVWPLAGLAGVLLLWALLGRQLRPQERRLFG
Briefly: SDS-PAGE band shift of FSL-1-biotin with western blot. It counts as biochemical. As to conditions: acyl donor 500 uM; co-substrate FSL-1-biotin 2.5-5 uM; 20 nM enzyme; 0.1% Triton X-100; pH 7.2 or 6.5; 37 C. Background: In western blotting, separated proteins are transferred to a membrane and probed.

Another assay addresses T2, LntEco (Escherichia coli, UniProt P23930).
T2 construct: gene lnt; full-length membrane enzyme, N-terminal thrombin-cleavable His6-tag (pET28a, synthetic gene), expressed in E. coli C43(DE3), purified in LMNG; tag cleavage not described
Briefly: TLC with fluorescence of lyso-NBD-PE formed. It counts as biochemical. As to conditions: labelled compound; NBD-PE 500 uM; co-substrate FSL-1 150 uM; 8 uM enzyme; 50 mM Tris-HCl pH 7.5, 150 mM NaCl, 1 mM TCEP, 0.02% LMNG; 37 C.

Consider `CCCCCCCC/C=C\CCCCCCCC(=O)OC[C@H](COP(=O)(O)OCC(O)CO)OC(=O)CCCCCCC/C=C\CCCCCCCC` (some centres unmarked) [DOPG], for which the “SDS-PAGE band shift of FSL-1-biotin with western blot” value on LntPae is listed as “When DOPE was replaced with DOPG or DOPC, the product was formed much less efficiently”.

Consider `CCCCCCCC/C=C\CCCCCCCC(=O)OC[C@H](COP(=O)(O)OCCN)OC(=O)CCCCCCCCCCCNc1ccc([N+](=O)[O-])c2nonc12` [NBD-PE], for which the “TLC with fluorescence of lyso-NBD-PE formed” value on LntEco is given as “Time course of lyso-PE production catalysed by LntEco”.

The values are drawn from article PMC5500888, “Structural insights into the mechanism of the membrane integral N-acyltransferase step in bacterial lipoprotein synthesis” (Nature Communications, 2017).
